From patent US10155810B2, “Provasopressin antagonists and uses thereof” (Woomera Therapeutics, Inc., priority 2011, dated 2018)

Tested on: recurrent H82 SCLC cells xenografts
Experiment: H82 SCLC xenograft, combination with cyclophosphamide
Type: in vivo, nu/nu mice
Conditions: cyclophosphamide 50 mg/kg daily for 3 days, then 100 μg MAG-1 daily for 11 days, i.p.
Procedure: Three groups of nu/nu mice (8 animal per group) were injected with 1×10^7 recurrent H82 SCLC cells per mouse s.c. on the right flank, and the tumors were allowed to grow to an average of about 300 mm^3 in about 14 days. All treatment was carried out by injection intraperitoneally.

## O=P1(N(CCCl)CCCl)NCCCO1 (stereo not shown) [cyclophosphamide]
  efficacy of combined therapy on tumor growth: synergistic efficacy
